Results reported in patent publication US7956059B2, “Aliphatic amide and ester pyrazinoylguanidine sodium channel blockers” (Parion Sciences, Inc., priority 2004, dated 2011).
Several values for one entry are separate records, joined by “and”; a condition that tells them apart may be missing. Identical values can stand only once. Counter-ions that a name gives are not always drawn.

SMILES	melting point
N=C(NCCCCCCCCCCCC(=O)N1CCNCC1)NC(=O)c1nc(Cl)c(N)nc1N (as salt: hydrochloride) [ALB 27069, N-(3,5-Diamino-6-chloropyrazine-2-carbonyl)-N′-(12-oxo-12-piperazin-1-yl-dodecyl)guanidine dihydrochloride]	148 to 150 °C
N=C(NCCCCCCCCCCCC(=O)O)NC(=O)c1nc(Cl)c(N)nc1N [ALB 26799, 12-[N′-(3,5-diamino-6-chloropyrazine-2-carbonyl)guanidino]-dodecanoic acid]	194 to 196 °C and 192 to 194 °C
CN(C)CCCNC(=O)CCCCCCCCCCCNC(N)=NC(=O)c1nc(Cl)c(N)nc1N [ALB 26982, 12-[N′-(3,5-Diamino-6-chloropyrazine-2-carbonyl)guanidino]dodecanoic acid (3-dimethylaminopropyl)amide]	82 to 84 °C
N=C(N)N(CCCCCCCCCCC(=O)O)C(=O)c1nc(Cl)c(N)nc1N [ALB 26795, 11-[N-(3,5-Diamino-6-chloropyrazine-2-carbonyl)guanidino]undecanoic acid]	181 to 191 °C

The remaining lines, values ahead:

melting point	SMILES
102 to 104 °C	NC(=NC(=O)c1nc(Cl)c(N)nc1N)NCCCCCCCCCCCC(=O)Nc1ncc[nH]1 [ALB 27070, 12-[N′-(3,5-Diamino-6-chloropyrazine-2-carbonyl)guanidino]dodecanoic acid (1H-imidazol-2-yl)amide]
52 to 56 °C	CN(C)CCCNC(=O)CCCCCCCCCCN(C(=N)N)C(=O)c1nc(Cl)c(N)nc1N (as salt: salt) [ALB 27160, 11-[N-(3,5-Diamino-6-chloropyrazine-2-carbonyl)guanidino]undecanoic acid (3-dimethylaminopropyl)amide]
69 to 72 °C	N=C(N)N(CCCCCCCCCCC(N)=O)C(=O)c1nc(Cl)c(N)nc1N [ALB 27317, 11-[N-(3,5-Diamino-6-chloropyrazine-2-carbonyl)guanidino]undecanoic acid amide]
